Values joined by “and” are separate entries in the source; they are usually repeats but may differ in a detail not shown here. Equal values may be shown once. “Also recorded” adds a separate entry of the source.
Assays:
[1] = target: T1, MERS-CoV macro domain (Middle East respiratory syndrome-related coronavirus, UniProt K9N638); format: binding
[2] = target: T1, MERS-CoV macro domain; format: binding; remark: listed apart in the source
[3] = target: T1, MERS-CoV macro domain; format: binding; remark: listed apart in the source
[4] = target: T1, MERS-CoV macro domain; format: binding; remark: listed apart in the source
[5] = target: T1, MERS-CoV macro domain; format: biochemical
[6] = system: MERS-CoV; details: cited from earlier work

T1 sequence (K9N638 1110-1276 limits assumed): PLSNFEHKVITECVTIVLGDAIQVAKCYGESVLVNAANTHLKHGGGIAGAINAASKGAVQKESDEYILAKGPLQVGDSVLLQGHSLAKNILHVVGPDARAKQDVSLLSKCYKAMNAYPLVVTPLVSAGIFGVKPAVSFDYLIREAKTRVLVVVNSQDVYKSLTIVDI

## Nc1ncnc2c1ncn2C1OC(COP(=O)(O)OP(=O)(O)OCC2OC(O)C(O)C2O)C(O)C1O (stereo not shown) [ADPR, ADP-ribose]
[1]
  Melting temperature (Tm) of the MERS-CoV macro domain in complex, DSF: 49.0 °C
[2]
  NMR CSP, residue 2: 0.05411
  NMR CSP, residue 3: 0.1983 and 0.2813
  NMR CSP, residue 5: 0.069
  NMR CSP, residue 6: 0.06294 and 0.07046
  NMR CSP, residue 7: 0.1539 and 0.09995
  NMR CSP, residue 8: 0.1145 and 0.09451
  NMR CSP, residue 13: 0.06576 and 0.04291
  NMR CSP, residue 15: 0.1078 and 0.09719
  NMR CSP, residue 16: 0.1514 and 0.1186
  NMR CSP, residue 17: 0.0814 and 0.0623
  NMR CSP, residue 18: 0.08432 and 0.05219
  NMR CSP, residue 19: 0.3848 and 0.3419
  NMR CSP, residue 20: 0.8973 and 0.7322
  NMR CSP, residue 22: 0.3525 and 0.4007
  NMR CSP, residue 23: 0.383
  NMR CSP, residue 25: 0.05156 and 0.08317
  NMR CSP, residue 26: 0.1992 and 0.1277
  NMR CSP, residue 27: 0.03208
  NMR CSP, residue 28: 0.1376 and 0.09301
  NMR CSP, residue 29: 0.03731 and 0.02244
  NMR CSP, residue 31: 0.0401 and 0.04027
  NMR CSP, residue 32: 0.3295 and 0.3317
  NMR CSP, residue 40: 0.1305
  NMR CSP, residue 42: 0.3421 and 0.2454
  NMR CSP, residue 45: 0.9446
  NMR CSP, residue 46: 1.504 and 1.393
  NMR CSP, residue 48: 1.083
  NMR CSP, residue 49: 0.7736
  NMR CSP, residue 50: 0.4669 and 0.3863
  NMR CSP, residue 51: 0.1048 and 0.1583
  NMR CSP, residue 52: 0.2728 and 0.1547
  NMR CSP, residue 53: 0.1687 and 0.136
  NMR CSP, residue 54: 0.08878 and 0.08252
  NMR CSP, residue 55: 0.1049 and 0.106
  NMR CSP, residue 56: 0.1546 and 0.1346
  NMR CSP, residue 57: 0.138 and 0.07814
  NMR CSP, residue 59: 0.122 and 0.1437
  NMR CSP, residue 60: 0.1518 and 0.1952
  NMR CSP, residue 62: 0.2878 and 0.2628
  NMR CSP, residue 63: 0.1045 and 0.05935
  NMR CSP, residue 64: 0.3272 and 0.2442
  NMR CSP, residue 66: 0.09722 and 0.08557
  NMR CSP, residue 67: 0.1931 and 0.1393
  NMR CSP, residue 68: 0.02796 and 0.05038
  NMR CSP, residue 71: 0.06402
  NMR CSP, residue 73: 0.05219
  NMR CSP, residue 74: 0.2006 and 0.1195
  NMR CSP, residue 76: 0.3259 and 0.302
  NMR CSP, residue 77: 0.2091 and 0.1118
  NMR CSP, residue 78: 0.3066 and 0.2179
  NMR CSP, residue 79: 0.2231 and 0.1318
  NMR CSP, residue 81: 0.02964 and 0.02247
  NMR CSP, residue 82: 0.08035 and 0.07748
  NMR CSP, residue 88: 0.05214 and 0.02732
  NMR CSP, residue 90: 0.03514 and 0.02202
  NMR CSP, residue 91: 0.0404 and 0.05921
  NMR CSP, residue 92: 0.2456 and 0.1395
  NMR CSP, residue 93: 0.4982 and 0.3283
  NMR CSP, residue 94: 1.407 and 1.235
  NMR CSP, residue 95: 0.4425 and 0.3726
  NMR CSP, residue 97: 0.5401 and 0.4521
  NMR CSP, residue 100: 0.1106 and 0.08163
  NMR CSP, residue 105: 0.06587
  NMR CSP, residue 106: 0.1936 and 0.1903
  NMR CSP, residue 107: 0.1268 and 0.1117
  NMR CSP, residue 108: 0.06699 and 0.04787
  NMR CSP, residue 110: 0.1341 and 0.1262
  NMR CSP, residue 116: 0.02109 and 0.03031
  NMR CSP, residue 117: 0.04981 and 0.05032
  NMR CSP, residue 120: 0.07982 and 0.07783
  NMR CSP, residue 125: 0.9414 and 0.7836
  NMR CSP, residue 126: 0.4011 and 0.2956
  NMR CSP, residue 127: 0.636 and 0.5379
  NMR CSP, residue 131: 0.2256 and 0.1765
  NMR CSP, residue 132: 0.8759
  NMR CSP, residue 133: 0.6064 and 0.6446
  NMR CSP, residue 135: 0.1312 and 0.07635
  NMR CSP, residue 136: 0.08199 and 0.1121
  NMR CSP, residue 137: 0.1059 and 0.1517
  NMR CSP, residue 138: 0.1473 and 0.115
  NMR CSP, residue 139: 0.07462 and 0.1086
  NMR CSP, residue 140: 0.04879 and 0.03054
  NMR CSP, residue 141: 0.06216 and 0.08925
  NMR CSP, residue 145: 0.2809 and 0.3196
  NMR CSP, residue 148: 0.04359 and 0.06607
  NMR CSP, residue 149: 0.112 and 0.08955
  NMR CSP, residue 150: 0.04 and 0.03962
  NMR CSP, residue 152: 0.255 and 0.1438
  NMR CSP, residue 153: 0.3264 and 0.2803
  NMR CSP, residue 154: 0.8835 and 0.7254
  NMR CSP, residue 155: 0.3976 and 0.2797
  NMR CSP, residue 156: 0.2021
  NMR CSP, residue 157: 0.1187 and 0.09085
  NMR CSP, residue 158: 0.04463 and 0.03077
  NMR CSP, residue 162: 0.06097 and 0.0557
  NMR CSP, residue 163: 0.2144 and 0.1623
  NMR CSP, residue 164: 0.08089 and 0.05482
[3]
  entropy contribution: −9.30 ± 17.61 J/mol K
  n (stoichiometry of binding): 1.25 ± 0.08 and 1.20 ± 0.19
[4]
  Melting temperature (Tm) of the MERS-CoV macro domain in complex, CD: 48.8 °C
[5]
  Effect on MAR signals in the deMAR reaction: the MAR signals reduced fewer

## NC(=O)c1ccc[n+]([C@@H]2O[C@H](COP(=O)([O-])OP(=O)(O)OC[C@H]3O[C@@H](n4cnc5c(N)ncnc54)[C@H](O)[C@@H]3O)[C@@H](O)[C@H]2O)c1 [NAD, nicotinamide adenine dinucleotide]
[1]
  Melting temperature (Tm) of the MERS-CoV macro domain in complex, DSF: 46.5 °C
[2]
  NMR CSP, residue 25: 0.05155 and 0.0863
  NMR CSP, residue 27: 0.02171 and 0.02658
  NMR CSP, residue 35: 0.0131
  NMR CSP, residue 36: 0.01783
  NMR CSP, residue 37: 0.07975
  NMR CSP, residue 38: 0.01444
  NMR CSP, residue 45: 0.2497
  NMR CSP, residue 47: 0.006205
  NMR CSP, residue 48: 0.04145
  NMR CSP, residue 49: 0.01049
  NMR CSP, residue 79: 0.07732 and 0.1287
  NMR CSP, residue 104: 0.01357 and 0.02257
  NMR CSP, residue 115: 0.005468 and 0.008456
  NMR CSP, residue 124: 0.0754 and 0.108
  NMR CSP, residue 128: 0.1673
  NMR CSP, residue 129: 0.02609
  NMR CSP, residue 130: 0.008538
  NMR CSP, residue 132: 0.01478
  NMR CSP, residue 140: 0.01724 and 0.02911
  NMR CSP, residue 143: 0.0201 and 0.02422
  NMR CSP, residue 156: 0.0383
  NMR chemical shift perturbation behaviour / exchange regime: only a few residues presented CSPs; also recorded: slow-exchange
[3]
  entropy contribution: −22.59 ± 3.77 J/mol K
  n (stoichiometry of binding): 1.04 ± 0.12 and 0.938 ± 0.13
[4]
  Melting temperature (Tm) of the MERS-CoV macro domain in complex, CD: 46.6 °C
[5]
  Effect on MAR signals in the deMAR reaction: the MAR signals reduced more

## Oc1ccc(/C=C/c2cc(O)cc(O)c2)cc1 [resveratrol]
[6]
  Effect on replication of MERS-CoV: inhibit the replication of MERS-CoV

From paper PMC7840908 (Communications Biology, 2021)
